# Tested on: Human hepatic cancer cells HepG2
# Test: TG production inhibiting activity (14C-acetic acid incorporation into TG) in HepG2 cells
# Assay type: cell-based
# Settings: Homo sapiens, HepG2; group criterion, alternatives: IC50 at least 10 μM and less than 100 μM, or at least 5% and less than 30% inhibition at 1 μM, or at least 30% and less than 50% inhibition at 10 μM
# Procedure: Human hepatic cancer cells HepG2 were inoculated into a 24-well plate (Costar No. 3524) at 4×10^4 cells/well, and 1 ml of medium (eRDF medium containing 10% bovine serum (Kyokuto Chemical Co.)) was used for 6 day culturing with 5% CO2 at 37° C. After drawing off the supernatant medium, the cells were freshly rinsed with 1 ml of PBS(−) buffer solution (Takara Shuzo) and drawn off. This procedure was repeated twice and then 1 ml of fresh medium (eRDF medium) was added.
# 6-(benzofuran-2-yl)-3,5-dimethyl-4-hydroxy-2H-pyran-2-one (Example 2) was dissolved in dimethylsulfoxide (DMSO) to prepare a 20 mM sample stock solution. A diluted solution was obtained by diluting the sample solution with DMSO.
# To the cells prepared above there were added the sample stock solution or its diluted solution at 5 μl per well and 10 μl of ^14C-acetic acid solution (a solution of Amersham Code No. CFA13 diluted 4.4-fold with PBS(−) buffer), and culturing was carried out for one day with 5% CO2 at 37° C.
# After the culturing was completed, the culture solution was removed, and 1 ml of extraction solution (a mixture of n-hexane and isopropyl alcohol at 2:1) was added for extraction treatment on the lipid components in the cells. After the treatment, the extract containing the obtained lipid components was air-dried, the residue was redissolved in 20 μl of a mixed solution of n-hexane and ethyl acetate at 9:1, and the solution was spotted on a thin-layer chromatography plate (S319, Tokyo Kasei) and developed by thin-layer chromatography with the mixed solution mentioned above. After air-drying, the lipid components were colored with iodine vapor, the portion corresponding to TG was cut out, and the amount of TG biosynthesized was measured with a liquid scintillation counter.
row,SMILES,IC50
1,"Cc1c(-c2cc3cc(OCC4CCCCN4C(=O)OC(C)(C)C)ccc3o2)oc(=O)c(C)c1O (stereo not shown) [Example 220, 6-(5-(1-t-butoxycarbonylpiperidin-2-ylmethoxy)benzofuran-2-yl)-3,5-dimethyl-4-hydroxy-2H-pyran-2-one]",10 to 100 µM
2,"Cc1c(-c2cc3ccccc3o2)oc(=O)c(C(C)C)c1O [Example 38, 6-(benzofuran-2-yl)-4-hydroxy-3-isopropyl-5-methyl-2H-pyran-2-one]",10 to 100 µM
3,"CC(=O)Oc1c(C)c(-c2cc3ccc(N(C)C)cc3o2)oc(=O)c1C [Example 23, 4-acetyloxy-3,5-dimethyl-6-(6-dimethylaminobenzofuran-2-yl)-2H-pyran-2-one]",10 to 100 µM
4,"Cc1c(-c2cc3cc(OCC4COC(C)(C)O4)ccc3o2)oc(=O)c(C)c1O (stereo not shown) [Example 183, 3,5-dimethyl-6-(5-(2,2-dimethyl-1,3-dioxolan-4-ylmethoxy)benzofuran-2-yl)-4-hydroxy-2H-pyran-2-one]",10 to 100 µM
5,"Cc1c(-c2cc3cc(OCCOCc4ccccc4)ccc3o2)oc(=O)c(C)c1O [Example 213, 6-(5-(2-(benzyloxy)ethoxy)benzofuran-2-yl)-3,5-dimethyl-4-hydroxy-2H-pyran-2-one]",10 to 100 µM
6,"COc1ccc(C(Oc2ccc3oc(-c4oc(=O)c(C)c(O)c4C)cc3c2)c2ccc(OC)cc2)cc1 [Example 201, 6-(5-(bis(4-methoxyphenyl)methoxy)benzofuran-2-yl)-3,5-dimethyl-4-hydroxy-2H-pyran-2-one]",10 to 100 µM
7,"COc1cccc2oc(-c3oc(=O)c(C)c(OC(C)=O)c3C)cc12 [Example 266, 4-acetyloxy-3,5-dimethyl-6-(4-methoxybenzofuran-2-yl)-2H-pyran-2-one]",10 to 100 µM
8,"CC(=O)Oc1ccc2cc(-c3oc(=O)c(C)c(OC(C)=O)c3C)oc2c1 [Example 275, 4-acetyloxy-6-(6-acetyloxybenzofuran-2-yl)-3,5-dimethyl-2H-pyran-2-one]",10 to 100 µM
9,"CC(=O)Oc1c(C)c(-c2cc3ccc(O)cc3o2)oc(=O)c1C [Example 18, 4-acetyloxy-3,5-dimethyl-6-(6-hydroxybenzofuran-2-yl)-2H-pyran-2-one]",10 to 100 µM
10,"Cc1c(-c2cc3cc(C=O)ccc3o2)oc(=O)c(C)c1O [Example 7, 3,5-dimethyl-6-(5-formylbenzofuran-2-yl)-4-hydroxy-2H-pyran-2-one]",10 to 100 µM

# Same assay, conditions: Homo sapiens, HepG2; group criterion, alternatives: IC50 less than 10 μM, or at least 30% inhibition at 1 μM, or at least 50% inhibition at 10 μM
row,SMILES,IC50
1,"Cc1c(-c2cc3ccccc3o2)oc(=O)c(C)c1OC(=O)COc1ccccc1 [Example 42, 6-(benzofuran-2-yl)-3,5-dimethyl-4-phenoxyacetyloxy-2H-pyran-2-one]",< 10 µM
2,"Cc1c(-c2cc3cc(OCc4cccc(F)c4)ccc3o2)oc(=O)c(C)c1O [Example 226, 3,5-dimethyl-6-(5-(3-fluorobenzyloxy)benzofuran-2-yl)-4-hydroxy-2H-pyran-2-one]",< 10 µM
3,"CC(=O)Nc1ccc(C(=O)Oc2c(C)c(-c3cc4cc(OCc5ccccc5)ccc4o3)oc(=O)c2C)cc1 [Example 54, 4-(4-(acetylamino)benzoyloxy)-6-(5-benzyloxybenzofuran-2-yl)-3,5-dimethyl-2H-pyran-2-one]",< 10 µM
4,"CC(=O)Oc1c(C)c(-c2cc3c(OC(C)=O)cccc3o2)oc(=O)c1C [Example 265, 4-acetyloxy-6-(4-acetyloxybenzofuran-2-yl)-3,5-dimethyl-2H-pyran-2-one]",< 10 µM
5,"Cc1c(-c2cc3cc(OCc4ccc(C(=O)O)cc4)ccc3o2)oc(=O)c(C)c1O [Example 117, 6-(5-(4-carboxybenzyloxy)benzofuran-2-yl)-3,5-dimethyl-4-hydroxy-2H-pyran-2-one]",< 10 µM
6,"CC(=O)Oc1c(C)c(-c2cc3cc(OS(=O)(=O)c4ccc(C)cc4)ccc3o2)oc(=O)c1C [Example 274, 4-acetyloxy-3,5-dimethyl-6-(5-p-toluenesulfonyloxybenzofuran-2-yl)-2H-pyran-2-one]",< 10 µM
7,"Cc1c(-c2cc3cc(OCc4ccccc4)ccc3o2)oc(=O)c(C)c1OC(=O)CNC(=O)OC(C)(C)C [Example 52, 6-(5-benzyloxybenzofuran-2-yl)-4-(2-(t-butoxycarbonylamino)acetyloxy)-3,5-dimethyl-2H-pyran-2-one]",< 10 µM
8,"C#CCOc1ccc2oc(-c3oc(=O)c(C)c(O)c3C)cc2c1 [Example 215, 3,5-dimethyl-4-hydroxy-6-(5-(2-propyn-1-yloxy)benzofuran-2-yl)-2H-pyran-2-one]",< 10 µM
9,"Cc1c(-c2cc3cc(OCc4ccc(F)cc4)ccc3o2)oc(=O)c(C)c1O [Example 228, 3,5-dimethyl-6-(5-(4-fluorobenzyloxy)benzofuran-2-yl)-4-hydroxy-2H-pyran-2-one]",< 10 µM
10,"Cc1c(-c2cc3ccccc3o2)oc(=O)c(C)c1OC(=O)CNC(=O)OC(C)(C)C [Example 71, 6-(benzofuran-2-yl)-4-(2-(t-butoxycarbonylamino)acetyloxy)-3,5-dimethyl-2H-pyran-2-one]",< 10 µM
11,"Cc1c(-c2cc3cc(OCc4cocn4)ccc3o2)oc(=O)c(C)c1O [Example 249, 3,5-dimethyl-4-hydroxy-6-(5-(4-oxazolylmethoxy)benzofuran-2-yl)-2H-pyran-2-one]",< 10 µM
12,"Cc1c(-c2cc3cc(OCc4ccc(Cl)cc4Cl)ccc3o2)oc(=O)c(C)c1O [Example 153, 6-(5-(2,4-dichlorobenzyloxy)benzofuran-2-yl)-3,5-dimethyl-4-hydroxy-2H-pyran-2-one]",< 10 µM
13,"Cc1c(-c2cc3cc(OCc4ccccc4)ccc3o2)oc(=O)c(C)c1O [Example 271, 6-(5-benzyloxybenzofuran-2-yl)-3,5-dimethyl-4-hydroxy-2H-pyran-2-one]",< 10 µM
14,"Cc1c(-c2cc3cc(C=C4SC(=O)NC4=O)ccc3o2)oc(=O)c(C)c1O [Example 9, 3,5-dimethyl-6-(5-((3,5-dioxo-2,4-thiazolidinylidene)methyl)benzofuran-2-yl)-4-hydroxy-2H-pyran-2-one]",< 10 µM
15,"Cc1c(O)c(CC2CCCC2)c(-c2cc3ccccc3o2)oc1=O [Example 66, 6-(benzofuran-2-yl)-5-cyclopentylmethyl-4-hydroxy-3-methyl-2H-pyran-2-one]",< 10 µM
16,"Cc1c(-c2cc3cc(N(C)C)ccc3o2)oc(=O)c(C)c1O [Example 48, 3,5-dimethyl-6-(5-(dimethylamino)benzofuran-2-yl)-4-hydroxy-2H-pyran-2-one]",< 10 µM
17,"CC(=O)Oc1c(C)c(-c2cc3ccccc3o2)oc(=O)c1C [Example 1, 4-acetyloxy-6-(benzofuran-2-yl)-3,5-dimethyl-2H-pyran-2-one]",< 10 µM
18,"Cc1c(-c2cc3ccccc3o2)oc(=O)c(C)c1OC(=O)c1cccnc1 [Example 63, 6-(benzofuran-2-yl)-3,5-dimethyl-4-nicotinoyloxy-2H-pyran-2-one]",< 10 µM
19,"Cc1c(-c2cc3cc(OCc4cccc(C(F)(F)F)c4)ccc3o2)oc(=O)c(C)c1O [Example 122, 3,5-dimethyl-4-hydroxy-6-(5-(3-(trifluoromethyl)benzyloxy)benzofuran-2-yl)-2H-pyran-2-one]",< 10 µM
20,"COc1ccc(C(=O)Oc2c(C)c(-c3cc4ccccc4o3)oc(=O)c2C)c(OC)c1 [Example 72, 6-(benzofuran-2-yl)-4-(2,4-dimethoxybenzoyloxy)-3,5-dimethyl-2H-pyran-2-one]",< 10 µM
21,"CC(=O)Oc1c(C)c(-c2cc3ccc(-c4cccs4)cc3o2)oc(=O)c1C [Example 25, 4-acetyloxy-3,5-dimethyl-6-(6-(2-thienyl)benzofuran-2-yl)-2H-pyran-2-one]",< 10 µM
22,"CCCCOc1ccc(COc2ccc3oc(-c4oc(=O)c(C)c(O)c4C)cc3c2)cc1 [Example 163, 6-(5-(4-n-butoxybenzyloxy)benzofuran-2-yl)-3,5-dimethyl-4-hydroxy-2H-pyran-2-one]",< 10 µM
23,"COc1ccc(C(=O)Oc2c(C)c(-c3cc4ccccc4o3)oc(=O)c2C)cc1 [Example 30, 6-(benzofuran-2-yl)-3,5-dimethyl-4-(4-methoxybenzoyloxy)-2H-pyran-2-one]",< 10 µM
24,"Cc1c(-c2cc3cc(C(=O)NCc4ccncc4)ccc3o2)oc(=O)c(C)c1O [Example 306, 3,5-dimethyl-4-hydroxy-6-(5-(4-pyridylmethylcarbamoyl)benzofuran-2-yl)-2H-pyran-2-one]",< 10 µM
25,"Cc1c(-c2cc3ccccc3o2)oc(=O)c(C)c1OC(=O)c1ccc(CO)cc1 [Example 28, 6-(benzofuran-2-yl)-3,5-dimethyl-4-(4-hydroxymethylbenzoyloxy)-2H-pyran-2-one]",< 10 µM
26,"Cc1c(-c2cc3ccccc3o2)oc(=O)c(C)c1OC(=O)c1cccc(N(C)C)c1 [Example 75, 6-(benzofuran-2-yl)-3,5-dimethyl-4-(3-dimethylaminobenzoyloxy)-2H-pyran-2-one]",< 10 µM
27,"Cc1c(-c2cc3cc(C(=O)N4CCc5ccccc5C4)ccc3o2)oc(=O)c(C)c1O [Example 302, 3,5-dimethyl-4-hydroxy-6-(5-(1,3,4-trihydroisoquinolin-2-ylcarbonyl)benzofuran-2-yl)-2H-pyran-2-one]",< 10 µM

# Source: patent US6589984B1, “Benzofurylpyrone derivatives” (Teijin Limited, priority 1998, dated 2003)
